In patent EP2276483B1, “SOLID FORMS COMPRISING (+)-2-[1-(3-ETHOXY-4-METHOXYPHENYL)-2-METHYLSULFONYLETHYL]-4-ACETYLAMINOISOINDOLINE-1,3-DIONE, COMPOSITIONS THEREOF, AND USES THEREOF” (CELGENE CORPORATION, priority 2008, dated 2009):

Experiments:
conscious ferret = assay: Emesis and behavioral changes in conscious ferret; assay type: in vivo, ferrets (Mustela Pulorius Euro); details: for Ataxia / Backward walking / Flattened posture / Lip licking / Mouth clawing / Panting / Retches / Salivation / Vomits: severity (number of animals that responded)
Protocol: The conscious ferret model has been used to investigate anti-inflammatory, emetic and behavioral effects of PDE4 inhibitors when administered by the oral (p.o.) route. From these experiments, a therapeutic index (TI) for each PDE4 inhibitor may be determined. The TI has been calculated by dividing the threshold dose for causing emetic episodes and behavioral changes by the anti-inflammatory dose (dose that causes 50% inhibition of the LPS-induced neutrophilia).
PDE4 inhibitors were administered orally (p.o.), at doses initially of […], but subsequently up to 30 mg/kg in order to establish whether the TI was 10 or higher, and/or at lower doses to establish the minimum dose to cause 50% inhibition of neutrophilia. Ferrets were fasted overnight but allowed free access to water. The animals were orally dosed with vehicle or PDE4 inhibitor using a 15 cm dosing needle that was passed down the back of the throat into the oesophagus. After dosing, the animals were returned to holding cages fitted with Perspex doors to allow observation, and given free access to water. After dosing, the animals were constantly observed and any emesis or behavioral changes were recorded. The animals were allowed access to food 60 to 90 minutes after p.o. dosing.
Thirty minutes after p.o. dosing with compound or vehicle control, the ferrets were placed into sealed Perspex containers and exposed to an aerosol of LPS (100 µg/ml) for 10 minutes. Aerosols of LPS were generated by a nebulizer (DeVilbiss, USA) and this was directed into the Perspex exposure chamber. Following a 10 minute exposure period, the animals were returned to the holding cages and allowed free access to water, and at a later stage, food. Observation continued for a period of at least 2.5 hours post p.o. dosing and emetic episodes and behavioral changes were recorded.
2. Emetic episodes - the number of vomits and retches were counted.
3. Behavioral changes - the following behavioral effects were noted: salivation, panting, mouth clawing, flattened posture, ataxia, arched back and backward walking. Any behavioral changes were semi-quantified by applying a severity rating (mild, moderate or severe).
4. The TI was calculated as the highest dose found to not cause emetic episodes divided by the lowest dose found to inhibit pulmonary neutrophilia by 50% or more.
Numbers in parentheses refer to the number of animals that responded. The numbers of animals in each group range from 4 to 22.
From these experiments, a therapeutic index (TI) was determined for each compound by dividing the threshold dose for inducing emetic episodes by the ED50 value for inhibiting the pulmonary neutrophilia. […] Table 4. Summary of the effective doses (ED50) for inhibition of LPS-induced pulmonary neutrophilia and induction of emesis and the therapeutic index derived from these values

[1] = molecular target: PDE7 purified from Hut78 human T cells (Homo sapiens, UniProt Q13946); assay: PDE7 enzyme assay; assay type: biochemical
Chain of PDE7 purified from Hut78 human T cells (Q13946 whole entry): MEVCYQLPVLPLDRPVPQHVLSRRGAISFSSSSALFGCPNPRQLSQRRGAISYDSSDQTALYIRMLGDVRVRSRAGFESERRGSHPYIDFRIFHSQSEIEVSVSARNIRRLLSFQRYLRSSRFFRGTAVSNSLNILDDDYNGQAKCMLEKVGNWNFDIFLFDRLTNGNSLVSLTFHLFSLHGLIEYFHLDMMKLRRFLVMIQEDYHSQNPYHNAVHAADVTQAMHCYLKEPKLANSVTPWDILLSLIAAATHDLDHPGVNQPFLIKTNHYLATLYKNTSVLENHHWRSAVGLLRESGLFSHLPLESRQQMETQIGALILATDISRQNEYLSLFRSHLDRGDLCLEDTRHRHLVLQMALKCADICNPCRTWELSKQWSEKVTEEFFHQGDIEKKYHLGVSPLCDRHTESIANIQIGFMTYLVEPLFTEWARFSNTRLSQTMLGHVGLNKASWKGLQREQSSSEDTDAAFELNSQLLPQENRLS
Protocol: PDE7 is a cAMP-selective PDE expressed mainly in T cells and in skeletal muscle. T cell-derived cytokines such as IL-2 and IFN-γ are potentially regulatable via PDE7 inhibition. […] Compounds were tested against the PDE7 preparation in the presence of 10 nM cAMP as described for PDE4 in Table 1.

IL-2 = assay: cells; assay type: cell-based; details: Homo sapiens, PBMC, read-out: IL-2 IC50
CD11b = assay: fMLF-induced CD11b expression on neutrophils; assay type: cell-based; details: Neutrophil; human neutrophils; 30 nM fMLF
Protocol: CD18/CD11b (Mac-1) expression on neutrophils was measured as previously described (Derian et al., 1995, J. Immunol., 154:308-3 17) with the following modifications. Neutrophils were isolated as described above, then resuspended in complete medium at 1x10^6 cells/ml, pretreated with compounds at 10, 1, 0.1, 0.01, and 0 µM in duplicate at a final DMSO concentration of 0.1% for 10 minutes at 37°C 5%CO2. Cells were then stimulated with 30 nM fMLF for 30 minutes and then chilled to 4°C. Cells were treated with rabbit IgG (Jackson ImmunoResearch Labs, West Grove, PA, USA) (10 µg/1x10^6 cells) to block Fc receptors, stained with CD18-FITC and CD11b-PE (Becton Dickinson), and analyzed by flow cytometry on a FACSCalibur. CD18/CD11b expression (mean fluorescence) in the absence of stimulation was subtracted from all samples to obtain inhibition curves and calculate IC50 values.

CCOc1cc(C(CS(C)(=O)=O)N2C(=O)c3cccc(NC(C)=O)c3C2=O)ccc1OC (single isomer, unassigned; (+)) [Compound A, (+)-2-[1-(3-ethoxy-4-methoxyphenyl)-2-methylsulfonylethyl]-4-acetylaminoisoindoline-1,3-dione]
Ataxia (conscious ferret; 0.1 mg/kg oral): None
Backward walking (conscious ferret; 0.1 mg/kg oral): Mild (3/5)
Flattened posture (conscious ferret; 0.1 mg/kg oral): Mild (2/5)
Lip licking (conscious ferret; 0.1 mg/kg oral): Mild (4/5)
Mouth clawing (conscious ferret; 0.1 mg/kg oral): None
Panting (conscious ferret; 0.1 mg/kg oral): None
Retches (conscious ferret; 0.1 mg/kg oral): None
Salivation (conscious ferret; 0.1 mg/kg oral): None
Vomits (conscious ferret; 0.1 mg/kg oral): None
Ataxia (conscious ferret; 0.3 mg/kg oral): None
Backward walking (conscious ferret; 0.3 mg/kg oral): Mild (4/6)
Flattened posture (conscious ferret; 0.3 mg/kg oral): Mild (2/6)
Lip licking (conscious ferret; 0.3 mg/kg oral): Mild (3/6)
Mouth clawing (conscious ferret; 0.3 mg/kg oral): None
Panting (conscious ferret; 0.3 mg/kg oral): None
Retches (conscious ferret; 0.3 mg/kg oral): None
Salivation (conscious ferret; 0.3 mg/kg oral): None
Vomits (conscious ferret; 0.3 mg/kg oral): None
Ataxia (conscious ferret; 1.0 mg/kg oral): None
Backward walking (conscious ferret; 1.0 mg/kg oral): Mild (4/6)
Flattened posture (conscious ferret; 1.0 mg/kg oral): Mild (2/6)
Lip licking (conscious ferret; 1.0 mg/kg oral): Mild (6/6)
Mouth clawing (conscious ferret; 1.0 mg/kg oral): None
Panting (conscious ferret; 1.0 mg/kg oral): None
Retches (conscious ferret; 1.0 mg/kg oral): None
Salivation (conscious ferret; 1.0 mg/kg oral): None
Vomits (conscious ferret; 1.0 mg/kg oral): None
Ataxia (conscious ferret; 3.0 mg/kg oral): None
Backward walking (conscious ferret; 3.0 mg/kg oral): Moderate (5/8)
Flattened posture (conscious ferret; 3.0 mg/kg oral): Marked (7/8)
Lip licking (conscious ferret; 3.0 mg/kg oral): Mild (2/8)
Mouth clawing (conscious ferret; 3.0 mg/kg oral): Mild (1/8)
Panting (conscious ferret; 3.0 mg/kg oral): None
Retches (conscious ferret; 3.0 mg/kg oral): None
Salivation (conscious ferret; 3.0 mg/kg oral): None
Vomits (conscious ferret; 3.0 mg/kg oral): None
Ataxia (conscious ferret; 10 mg/kg oral): None
Backward walking (conscious ferret; 10 mg/kg oral): Marked (6/6)
Flattened posture (conscious ferret; 10 mg/kg oral): Marked (6/6)
Lip licking (conscious ferret; 10 mg/kg oral): Moderate (5/6)
Mouth clawing (conscious ferret; 10 mg/kg oral): Mild (1/6)
Panting (conscious ferret; 10 mg/kg oral): None
Salivation (conscious ferret; 10 mg/kg oral): Mild (1/6)
Vomits (conscious ferret; 10 mg/kg oral): None
behavioral changes (severity) (conscious ferret; 10 mg/kg, p.o.): mild or moderate
emetic episodes (retching and vomiting) (conscious ferret; 10 mg/kg, p.o., in 2/6 ferrets): some retching but no frank emesis
Ataxia (conscious ferret; 30 mg/kg oral): Mild (3/4)
Backward walking (conscious ferret; 30 mg/kg oral): Mild (2/4)
Flattened posture (conscious ferret; 30 mg/kg oral): Marked (4/4)
Lip licking (conscious ferret; 30 mg/kg oral): Moderate (4/4)
Mouth clawing (conscious ferret; 30 mg/kg oral): Marked (4/4)
Panting (conscious ferret; 30 mg/kg oral): Mild (1/4)
Retches (conscious ferret; 30 mg/kg oral): Marked (3/4)
Salivation (conscious ferret; 30 mg/kg oral): Moderate (3/4)
Vomits (conscious ferret; 30 mg/kg oral): Moderate (3/4)
behavioral changes (severity) (conscious ferret; 30 mg/kg, p.o.): pronounced behavioral changes
emetic episodes (retching and vomiting) (conscious ferret; 30 mg/kg, p.o., in 3/4 animals): moderate to marked emesis
emetic episodes (retching and vomiting) (conscious ferret; 0.1-3 mg/kg, p.o.): no emetic episodes
behavioral changes (severity) (conscious ferret; 0.1-3 mg/kg, p.o., flattened posture, lip licking and backward walking): mild
Threshold emetic dose (conscious ferret; conscious ferret, p.o.): 10 mg/kg
Therapeutic index (conscious ferret; threshold emetic dose divided by ED50 for pulmonary neutrophilia): 12
IC50 ([1]; 10 nM cAMP): 20.5 µM
PDE Specificity Ratio PDE7 IC50/PDE4 IC50 ([1]; from above data): 279 fold
IC50 (IL-2): 0.291 µM
IC50 (CD11b): 0.074 µM
